Experimental data published in patent publication US7169785B2, “Methods and compositions of novel triazine compounds” (Reddy US Therapeutics, Inc., priority 2001, dated 2007).
Where two headings read alike, the source gives them in different places.

System: IL-6
Assay: TNF-α-induced IL-6 production determined by IL-6 ELISA in HAEC
Assay type: cell-based, human
Conditions: HAEC; for activity at 10 µM / activity at 5 µM: 24 h; for Inhibition of TNF-induced IL6 production: class of % of control IL6 production; for activity at 5 µM: read-out: % IL6 production compare to TNF stimulation of IL6 (100%), @ 5 uM
Procedure: Human aortic endothelial cells (HAEC, Clonetics) were cultured according to manufacturer in growth medium (Clonetics): basal medium containing human epidermal growth factor, hydrocortisone, vascular endothelial growth factor, heparin binding growth factor-B, long R3-insulin-like growth factor-1, ascorbic acid, gentamicin/amphotericin and 5% FBS. These cell were allowed to reach at least 90% confluency before subjected to experimental treatments. Glycated human serum albumin (G-HSA) was from US Biologicals. Tumor necrosis factor α was from R&D Systems.
[…] All treatments, compound-added and controls were carried out in serum free media containing 0.2% albumin. Media from all conditions were collected and used for IL-6 ELISA.
IL-6 ELISA was carried out using human IL-6 DuoSet ELISA development kit as described by manufacturer (R&D Systems). Mouse anti-human Il-6 was used as the capture antibody (2 ug/ml) and biotinylated goat anti-human IL-6 (200 ng/ml) was used as the detection antibody. Culture media were incubated with capture antibody (in 96 well) for 2 h at room temperature. Wells were washed three times with wash buffer (0.05% tween-20 in phosphate buffered saline (PBS) pH 7.4) followed by incubation with detection antibody for 2 h at room temperature. Following three washes wells were incubated with Streptavidin-HRP for 20 min. Color development was read at 450 nm in a Microplate reader.

[1] = Homo sapiens, Compds tested @ 10 uM, IL6, read-out: % IL6 production compare to TNF stimulation of IL6 (100%)
[2] = Homo sapiens, read-out: % IL6 production compare to TNF stimulation of IL6 (100%), Compds tested @ 10 uM, IL6

Compound	activity at 10 µM [1] [%]	further results
CCN1CCCC1CNc1nc(Nc2ccc(N3CCN(C)CC3)cc2)nc(NC2CCCCCC2)n1 (stereo not shown) [Compound 28, N^2-cycloheptyl-N^4-[(1-ethyl-2-pyrrolidinyl)methyl]-N^6-[4-(4-methyl-1-piperazinyl)phenyl]-1,3,5-triazine-2,4,6-triamine]	23	–
CCN1CCCC1CNc1nc(Nc2ccc(OC)c(Cl)c2)nc(NC2CCCCCC2)n1 (stereo not shown) [Compound 48, N^2-(3-chloro-4-methoxyphenyl)-N^4-cycloheptyl-N^6-[(1-ethyl-2-pyrrolidinyl)methyl]-1,3,5-triazine-2,4,6-triamine]	–	IC50 (Homo sapiens, IL6, unit inferred, read-out: IC50 (TNF stimulation of IL6)): 4.3 µM
CCNc1nc(NCC2CCCN2CC)nc(Nc2ccc(OC)c(F)c2)n1 (stereo not shown) [Compound 51, N^2-ethyl-N^4-[(1-ethyl-2-pyrrolidinyl)methyl]-N^6-(3-fluoro-4-methoxyphenyl)-1,3,5-triazine-2,4,6-triamine]	1	–
CCN1CCCC1CNc1nc(Nc2ccc(OC)c(F)c2)nc(NC2CCCCC2)n1 (stereo not shown) [Compound 55, N^2-cyclohexyl-N^4-[(1-ethyl-2-pyrrolidinyl)methyl]-N^6-(3-fluoro-4-methoxyphenyl)-1,3,5-triazine-2,4,6-triamine]	1	–
CCN1CCCC1CNc1nc(Nc2ccc(OC)c(F)c2)nc(NC2CCCC2)n1 (stereo not shown) [Compound 56, N^2-cyclopentyl-N^4-[(1-ethyl-2-pyrrolidinyl)methyl]-N^6-(3-fluoro-4-methoxyphenyl)-1,3,5-triazine-2,4,6-triamine]	1	–
CCN1CCCC1CNc1nc(Nc2ccc(OC)c(F)c2)nc(NC2CCC(C)CC2)n1 (stereo not shown) [Compound 60, N^2-[(1-ethyl-2-pyrrolidinyl)methyl]-N^4-(3-fluoro-4-methoxyphenyl)-N^6-(4-methylcyclohexyl)-1,3,5-triazine-2,4,6-triamine]	1	–
CCN1CCCC1CNc1nc(Nc2ccc(OC)c(F)c2)nc(N2CCN(C(C)=O)CC2)n1 (stereo not shown) [Compound 63, 6-(4-acetyl-1-piperazinyl)-N^2-[(1-ethyl-2-pyrrolidinyl)methyl]-N^4-(3-fluoro-4-methoxyphenyl)-1,3,5-triazine-2,4-diamine]	26	–
CCOC(=O)N1CCN(c2nc(NCC3CCCN3CC)nc(Nc3ccc(OC)c(F)c3)n2)CC1 (stereo not shown) [Compound 64, Ethyl 4-{4-{[(1-ethyl-2-pyrrolidinyl)methyl]amino}-N^6-[(3-fluoro-4-methoxyphenyl)amino]-1,3,5-triazin-2-yl}-1-piperazinecarboxylate]	23	–
COc1ccc(Nc2nc(NC3CCCCCC3)nc(NC(C)(C)C)n2)cc1F [Compound 77, N^2-(tert-butyl)-N^4-cycloheptyl-N^6-(3-fluoro-4-methoxyphenyl)-1,3,5-triazine-2,4,6-triamine]	21	–
COc1ccc(Nc2nc(NCc3ccccc3)nc(NC3CCCCCC3)n2)cc1F [Compound 78, N^2-benzyl-N^4-cycloheptyl-N^6-(3-fluoro-4-methoxyphenyl)-1,3,5-triazine-2,4,6-triamine]	47	–
COc1ccc(Nc2nc(NC3CCCCCC3)nc(N3CCCCCC3)n2)cc1F [Compound 83, N^2-cycloheptyl-N^4-(3-fluoro-4-methoxyphenyl)-6-hexahydro-1H-azepin-1-yl-1,3,5-triazine-2,4-diamine]	18	–
COc1ccc(Nc2nc(NC3CCCCCC3)nc(N3CCCC4CCCCC43)n2)cc1F (stereo not shown) [Compound 84, N^2-cycloheptyl-N^4-(3-fluoro-4-methoxyphenyl)-6-octahydro-1(2H)-quinolinyl-1,3,5-triazine-2,4-diamine]	33	–
COC[C@@H]1CCCN1c1nc(Nc2ccc(OC)c(F)c2)nc(NC2CCCCCC2)n1 [Compound 86, N^2-cycloheptyl-N^4-(3-fluoro-4-methoxyphenyl)-6-[(2S)-2-(methoxymethyl)-1-pyrrolidinyl]-1,3,5-triazine-2,4-diamine]	19	–
COc1ccc(Nc2nc(NC3CCCCCC3)nc(N3CCN(C(C)=O)CC3)n2)cc1F [Compound 88, 6-(4-acetyl-1-piperazinyl)-N^2-cycloheptyl-N^4-(3-fluoro-4-methoxyphenyl)-1,3,5-triazine-2,4-diamine]	19	–
COc1ccc(Nc2nc(NCc3ccco3)nc(NC3CCCCCC3)n2)cc1F [Compound 91, N^2-cycloheptyl-N^4-(3-fluoro-4-methoxyphenyl)-N^6-(2-furanylmethyl)-1,3,5-triazine-2,4,6-triamine]	28	–
COc1ccc(Nc2nc(NCCN3CCCCC3)nc(NC3CCCCCC3)n2)cc1F [Compound 96, N^2-cycloheptyl-N^4-(3-fluoro-4-methoxyphenyl)-N^6-[2-(1-piperidinyl)ethyl]-1,3,5-triazine-2,4,6-triamine]	6	–
COc1ccc(Nc2nc(NCCCCCO)nc(N(C)C3CCN(C)CC3)n2)cc1Cl [Compound 108, 5-{4-(3-Chloro-4-methoxy-phenylamino)-6-[methyl-(1-methyl-piperidin-4-yl)-amino]-[1,3,5]triazin-2-ylamino}-pentan-1-ol]	–	Inhibition of TNF-induced IL6 production: +++ (between about 25 and about 50% of control IL6 production); activity at 10 µM [2]: 25%
CCCCN(CCC)c1nc(Nc2ccc(OC)c(Cl)c2)nc(N(C)C2CCN(C)CC2)n1 [Compound 111, N-Butyl-N′-(3-chloro-4-methoxy-phenyl)-N″-methyl-N″-(1-methyl-piperidin-4-yl)-N-propyl-[1,3,5]triazine-2,4,6-triamine]	–	Inhibition of TNF-induced IL6 production: + (between about 75 and 100% of control IL6 production); activity at 5 µM (Homo sapiens, IL6): 46%; activity at 10 µM [2]: > 90%
CCCCN(CCC)c1nc(Nc2ccc(OC)c(Cl)c2)nc(N(C)C2CCNCC2)n1 [Compound 112, N^2-Butyl-N^4-(3-chloro-4-methoxy-phenyl)-N^6-methyl-N^6-piperidin-4-yl-N^2-propyl-1,3,5-triazine-2,4,6-triamine]	–	Inhibition of TNF-induced IL6 production: + (between about 75 and 100% of control IL6 production); activity at 5 µM (Homo sapiens, IL6): 90%
CCN1CCC[C@H]1CNc1nc(NCC2CCCCC2)nc(Nc2ccc(OC)c(F)c2)n1 [Compound 141, N^2-cyclohexylmethyl-N^4-((S)-1-ethyl-pyrrolidin-2-ylmethyl)-N^6-(3-fluoro-4-methoxyphenyl)-1,3,5-triazine-2,4,6-triamine]	23.4	–
CCN1CCC[C@@H]1CNc1nc(NCC2CCCCC2)nc(Nc2ccc(OC)c(F)c2)n1 [Compound 142, N^2-cyclohexylmethyl-N^4-((R)-1-ethyl-pyrrolidin-2-ylmethyl)-N^6-(3-fluoro-4-methoxyphenyl)-1,3,5-triazine-2,4,6-triamine]	21.6	–
CCN1CCC[C@H]1CNc1nc(NC2CCCCCC2)nc(N(CC#N)c2ccccc2)n1 [Compound 143, ({4-cycloheptylamino-6-[((S)-1-ethyl-pyrrolidin-2-ylmethyl)-amino]-1,3,5-triazin-2-yl}-phenyl-amino)-acetonitrile]	18.9	–
COc1ccc(Nc2nc(NC3CC3)nc(NC3CC3)n2)cc1F [Compound 157, N,N′-dicyclopropyl-N″-(3-fluoro-4-methoxy-phenyl)-1,3,5-triazine-2,4,6-triamine]	60.5	–
CN1CCC(N(C)c2nc(Nc3ccc4ccccc4c3)nc(NC3CCCCCC3)n2)CC1 [Compound 172, N-Cycloheptyl-N′-methyl-N′-(1-methyl-piperidin-4-yl)-N″-naphthalen-2-yl-[1,3,5]triazine-2,4,6-triamine]	–	% IL6 production compare to TNF stimulation to IL6 (100%) (Compds tested @ 10 uM): 18%
